Measurements taken from patent US20260007756A1, “COMPOUND AND USE THEREOF” (COHERENT BIOPHARMA (SUZHOU) LIMITED, priority 2022, published 2026).

Tests used:
A549 = experiment: Expansion inhibition of tumor cells (Example 7, CCK-8); type: cell-based; details: Homo sapiens, A549 (no detectable FOLR1 or PSMA expression), 72 h
Description: (§1) Samples were serially diluted with medium (serially 5-fold diluted from 10 μM) to 9 concentrations. […] Negative and blank controls were set.
(§2) A CCK-8 developing solution was added at 10 μL/well (10% of the liquid volume in the wells). The plates were incubated at 37° C. for a proper time (the OD value was controlled within the range of 1.0-2.5 as possible). The plate covers were removed, and the 96-well plates were loaded on a microplate reader (Molecular Devices SpectraMax iD5) to read the measurement at 450 nm.

PC-3 = experiment: as above; type: cell-based; details: Homo sapiens, PC-3 (no detectable FOLR1 or PSMA expression), 72 h
Description: as §1, §2

Solubility study in PBS = type: physicochemical; details: aqueous buffer, thermodynamic from solid; PBS (pH 7.2 to 7.4); read-out: Solubility, concentration
Description: The mixture was vortexed for 2 min until the solid was dissolved. The solubility was calculated as: C=m/V, C: concentration, m: sample weight, V: PBS total volume.

[1] = system: human prostate cancer 22RV1 cell subcutaneous xenograft tumor; experiment: Pharmacodynamic assessment, 22RV1 xenograft model; type: in vivo; details: 4 mg/kg iv biw×3, day 31 after grouping
Source text: Objective: Pre-clinical pharmacodynamic study of compounds for treating BALB/c nude mouse model with 22RV1 cell subcutaneous xenograft tumor (overexpressing PSMA).
Procedures: 22RV1 tumor mass was grafted subcutaneously at the right back of the mice, and the mice were randomized after the mean tumor volume was 150 mm^3. After administration, the animals were monitored daily for health conditions and death, and the routine examinations included observation of the effect on tumor growth and the effect of the treatment on the daily performance of the animals, such as behavioral activities, food and water intake, weight changes (measured once every other day), appearance, or other abnormal conditions. Whether the tumor growth was inhibited or delayed or the tumor was cured was also observed. The tumor volume was measured periodically. The tumor volume was calculated using the following formula: V=1/2×(a×b^2), where a and b denote the long diameter and short diameter of the tumor, respectively.

IC50 (A549): 124 nM | IC50 (PC-3): 103 nM | solubility at 2 min (Solubility study in PBS): < 900 µg/mL
SMILES: CC[C@@H]1C(=O)N(C)c2cnc(Nc3ccc(-c4cn([C@H]5CC[C@@H](NCCOCCC#Cc6cccc7c6CN(C6CCC(=O)NC6=O)C7=O)CC5)nn4)cc3OC)nc2N1C1CCCC1 (some centres unmarked) [CR20274]
Mean tumor volume [1]: 1274.47 mm^3 | TGI [1]: 31.55%
